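Following 48 hours of exposure in 96-well plates, responses at five concentrations were used to interpolate endpoints linearly. GI50: concentration for 50% inhibition of growth.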 Activity calls are given as the source filed them. Cut-off read from the data, not from the text of the source: active = GI50 up to about 1.1 µM and inactive = higher.
Assays:
Assay in all cases: inhibition of tumour cell growth, NCI panel, 48 h
TK-10 = tested on: TK-10
HT-29 = tested on: HT-29
IGROV-1 = tested on: IGROV-1
LOX IMVI = tested on: LOX IMVI
SW-620 = tested on: SW-620
SNB-78 = tested on: SNB-78
CCRF-CEM = tested on: CCRF-CEM
KM12 = tested on: KM12
ACHN = tested on: ACHN
PC-3 = tested on: PC-3
RXF 393 = tested on: RXF 393
NCI-H226 = tested on: NCI-H226
MCF7 = tested on: MCF7
BT-549 = tested on: BT-549
A549 = tested on: A549
NCI-H522 = tested on: NCI-H522
K562 = tested on: K562
M19-MEL = tested on: M19-MEL
T47D = tested on: T47D
NCI-H460 = tested on: NCI-H460
MDA-MB-231 = tested on: MDA-MB-231
NCI-H23 = tested on: NCI-H23
CAKI-1 = tested on: CAKI-1
786-0 = tested on: 786-0
HL-60 = tested on: HL-60
MDA-MB-435 = tested on: MDA-MB-435
RXF 631 = tested on: RXF 631
SNB-75 = tested on: SNB-75
M14 = tested on: M14
OVCAR-8 = tested on: OVCAR-8
UO-31 = tested on: UO-31
OVCAR-3 = tested on: OVCAR-3
HOP-18 = tested on: HOP-18
OVCAR-4 = tested on: OVCAR-4
SK-MEL-5 = tested on: SK-MEL-5
COLO 205 = tested on: COLO 205
DU-145 = tested on: DU-145
UACC-62 = tested on: UACC-62
SF-268 = tested on: SF-268
NCI/ADR-RES = tested on: NCI/ADR-RES
Malme-3M = tested on: Malme-3M
SNB-19 = tested on: SNB-19
HCT-15 = tested on: HCT-15
DLD-1 = tested on: DLD-1
RPMI-8226 = tested on: RPMI-8226
A498 = tested on: A498
HOP-92 = tested on: HOP-92
HCC 2998 = tested on: HCC 2998
SF-295 = tested on: SF-295
OVCAR-5 = tested on: OVCAR-5
SK-MEL-2 = tested on: SK-MEL-2
UACC-257 = tested on: UACC-257
EKVX = tested on: EKVX
HCT-116 = tested on: HCT-116
SK-MEL-28 = tested on: SK-MEL-28
DMS-273 = tested on: DMS-273
U-251 = tested on: U-251
SN12C = tested on: SN12C
SK-OV-3 = tested on: SK-OV-3
Hs-578T = tested on: Hs-578T
XF498 = tested on: XF498
HOP-62 = tested on: HOP-62
MOLT-4 = tested on: MOLT-4
LXFL 529 = tested on: LXFL 529
SR = tested on: SR
MDA-N = tested on: MDA-N
SF-539 = tested on: SF-539
KM-20L2 = tested on: KM-20L2
DMS-114 = tested on: DMS-114

O=C(NC(=O)c1c(F)cccc1F)Nc1cccc(Oc2ncc(Cl)cn2)c1
GI50 (TK-10): > 100 µM (inactive) | GI50 (HT-29): 4.59 µM (inactive) | GI50 (IGROV-1): 33.4 µM (inactive) | GI50 (LOX IMVI): 29.3 µM (inactive) | GI50 (SW-620): 4.3 µM (inactive) | GI50 (SNB-78): > 100 µM (inactive) | GI50 (CCRF-CEM): 47.1 µM (inactive) | GI50 (KM12): 1.4 µM (inactive) | GI50 (ACHN): 99.3 µM (inactive) | GI50 (PC-3): > 100 µM (inactive) | GI50 (RXF 393): 38.5 µM (inactive) | GI50 (NCI-H226): 62.7 µM (inactive) | GI50 (MCF7): > 100 µM (inactive) | GI50 (BT-549): > 24.8 µM (inactive) | GI50 (A549): > 39.9 µM (inactive) | GI50 (NCI-H522): 20.3 µM (inactive) | GI50 (K562): 3.1 µM (inactive) | GI50 (M19-MEL): > 100 µM (inactive) | GI50 (T47D): > 35.2 µM (inactive) | GI50 (NCI-H460): 4.51 µM (inactive) | GI50 (MDA-MB-231): > 71.6 µM (inactive) | GI50 (NCI-H23): > 100 µM (inactive) | GI50 (CAKI-1): 30 µM (inactive) | GI50 (786-0): 40 µM (inactive) | GI50 (HL-60): 3.51 µM (inactive) | GI50 (MDA-MB-435): 1.63 µM (inactive) | GI50 (RXF 631): > 100 µM (inactive) | GI50 (SNB-75): 19.5 µM (inactive) | GI50 (M14): > 51.2 µM (inactive) | GI50 (OVCAR-8): 43 µM (inactive) | GI50 (UO-31): > 100 µM (inactive) | GI50 (OVCAR-3): 40.4 µM (inactive) | GI50 (HOP-18): > 100 µM (inactive) | GI50 (OVCAR-4): > 69 µM (inactive) | GI50 (SK-MEL-5): > 100 µM (inactive) | GI50 (COLO 205): 3.85 µM (inactive) | GI50 (DU-145): > 100 µM (inactive) | GI50 (UACC-62): 36.6 µM (inactive) | GI50 (SF-268): 36.5 µM (inactive) | GI50 (NCI/ADR-RES): > 23.3 µM (inactive) | GI50 (Malme-3M): > 68.4 µM (inactive) | GI50 (SNB-19): 45.5 µM (inactive) | GI50 (HCT-15): 3.27 µM | GI50 (DLD-1): > 100 µM (inactive) | GI50 (RPMI-8226): > 94.8 µM (inactive) | GI50 (A498): > 76.6 µM (inactive) | GI50 (HOP-92): 16.6 µM (inactive) | GI50 (HCC 2998): 4.73 µM (inactive) | GI50 (SF-295): 32.3 µM (inactive) | GI50 (OVCAR-5): > 100 µM (inactive) | GI50 (SK-MEL-2): > 51.6 µM (inactive) | GI50 (UACC-257): > 100 µM (inactive) | GI50 (EKVX): > 100 µM (inactive) | GI50 (HCT-116): 8.79 µM (inactive) | GI50 (SK-MEL-28): > 100 µM (inactive) | GI50 (DMS-273): 2.45 µM (inactive) | GI50 (U-251): 33.2 µM (inactive) | GI50 (SN12C): 45.1 µM (inactive) | GI50 (SK-OV-3): 19.3 µM (inactive) | GI50 (Hs-578T): 35.2 µM (inactive) | GI50 (XF498): 19.7 µM (inactive) | GI50 (HOP-62): 29.6 µM (inactive) | GI50 (MOLT-4): > 80.5 µM (inactive) | GI50 (LXFL 529): > 91 µM (inactive) | GI50 (SR): 6.1 µM (inactive) | GI50 (MDA-N): 1.56 µM (inactive) | GI50 (SF-539): 23.3 µM (inactive)

Cn1ncc(=S)[nH]c1=S
GI50 (TK-10): > 100 µM (inactive) | GI50 (IGROV-1): > 100 µM (inactive) | GI50 (LOX IMVI): > 100 µM (inactive) | GI50 (SW-620): > 100 µM (inactive) | GI50 (SNB-78): > 100 µM (inactive) | GI50 (CCRF-CEM): > 100 µM (inactive) | GI50 (ACHN): > 100 µM (inactive) | GI50 (RXF 393): > 100 µM (inactive) | GI50 (NCI-H226): > 100 µM (inactive) | GI50 (A549): > 100 µM (inactive) | GI50 (NCI-H522): > 100 µM (inactive) | GI50 (KM-20L2): > 100 µM (inactive) | GI50 (K562): > 100 µM (inactive) | GI50 (M19-MEL): > 100 µM (inactive) | GI50 (NCI-H460): > 100 µM (inactive) | GI50 (NCI-H23): > 100 µM (inactive) | GI50 (786-0): > 100 µM (inactive) | GI50 (RXF 631): > 100 µM (inactive) | GI50 (SNB-75): 97.7 µM (inactive) | GI50 (M14): > 100 µM (inactive) | GI50 (DMS-114): > 100 µM (inactive) | GI50 (OVCAR-8): > 100 µM (inactive) | GI50 (UO-31): > 100 µM (inactive) | GI50 (OVCAR-3): > 100 µM (inactive) | GI50 (HOP-18): 47.6 µM (inactive) | GI50 (OVCAR-4): > 100 µM (inactive) | GI50 (COLO 205): > 100 µM (inactive) | GI50 (UACC-62): > 100 µM (inactive) | GI50 (SF-268): > 100 µM (inactive) | GI50 (Malme-3M): > 100 µM (inactive) | GI50 (SNB-19): > 100 µM (inactive) | GI50 (HCT-15): > 100 µM | GI50 (DLD-1): > 100 µM (inactive) | GI50 (RPMI-8226): > 100 µM (inactive) | GI50 (A498): > 100 µM (inactive) | GI50 (HOP-92): > 100 µM (inactive) | GI50 (SF-295): > 100 µM (inactive) | GI50 (OVCAR-5): > 100 µM (inactive) | GI50 (SK-MEL-2): > 100 µM (inactive) | GI50 (EKVX): > 100 µM (inactive) | GI50 (HCT-116): > 100 µM (inactive) | GI50 (SK-MEL-28): > 100 µM (inactive) | GI50 (DMS-273): > 100 µM (inactive) | GI50 (U-251): > 100 µM (inactive) | GI50 (SN12C): > 100 µM (inactive) | GI50 (SK-OV-3): > 100 µM (inactive) | GI50 (XF498): > 100 µM (inactive) | GI50 (HOP-62): > 100 µM (inactive) | GI50 (MOLT-4): > 100 µM (inactive) | GI50 (LXFL 529): > 100 µM (inactive) | GI50 (SF-539): > 100 µM (inactive)

— ChEMBL document CHEMBL1201862, “PubChem BioAssay data set” (2004)
